Data from US20140234884A1, “FLUOROGENIC SUBSTRATES, METHODS OF MAKING THE SUBSTRATES, AND METHODS OF DETECTING GLYCOSIDASE ACTIVITIES” (UNIVERSITE DE STRASBOURG, priority 2010, published 2014).
“And” between values parts separate entries of the source, which are not always exact repeats. Identical values can stand only once. Like-named read-outs stand apart in the source and are kept apart here.

Tests used:
[1] = tested on: β-xylosidase; conditions: extracts diluted 100 times; substrate 0.25 mM; phosphate buffer pH 7.5; 30° C; 120 minutes; excitation/emission 339/452 nm
Method: (§1) The enzymatic kinetics are achieved in a microplate on soluble enzymatic extracts (A, B, C and D) rich in activities of the cellulase and xylanase type. These extracts are diluted 10 times (substrate 18, FIG. 1) or 100 times (substrate 10, 12 and 14, FIG. 2) in a 50 mM phosphate buffer, NaCl 150 mM, pH=7.5. A volume of 20 μL of diluted enzymatic extract is added to 20 μL of fluorogenic substrate (10, 12, 14 or 18) at 0.25 mM in a 50 mM phosphate buffer, NaCl 150 mM, pH=7.5. The kinetics are achieved at 30° C. The enzymatic hydrolysis of the different fluorogenic substrate is followed for 120 minutes by measuring the fluorescence with excitation and emission wavelengths of: 339 nm and 452 nm for the substrates 10, 12 and 14; 375 nm and 510 nm for the substrate 18.

[2] = tested on: β-glucosidase; conditions: substrate 0.25 mM in inducing Dubos medium with carboxymethyl-cellulose; 30° C, 24 h; excitation/emission 388/455 nm
Method: (§2) Different control strains are cultivated in an LB medium at 30° C. with stirring (240 rpm) for 18 h. For each strain, the culture is centrifuged (2,500 g, 5 min) and the pellet of cells is washed twice in 5 mL of LB medium (centrifugation at 2,500 g, 5 min). This pellet is used for inoculating at OD=0.005 a culture in an inducing medium (Dubos medium with 2.5 g/L of carboxymethyl-cellulose) containing the fluorogenic substrate (8 or 10) at 0.25 mM. The culture is incubated at 30° C. without stirring for 24 h. Culture supernatant samples are taken at different incubation times in order to be able to follow the occurrence of cellulase or β-glucosidase activities in the culture medium. The occurrence of these activities is followed by measurement of the fluorescence on the culture supernatants in microplates with excitation and emission wavelengths of 388 nm and 455 nm.

[3] = tested on: β-glucosidase; conditions: substrate 0.25 mM, phosphate buffer pH 7.5, 30° C, 120 minutes
Method: as §1

[4] = tested on: cellulase; conditions: substrate 0.25 mM in inducing Dubos medium with carboxymethyl-cellulose; 30° C, 24 h; excitation/emission 388/455 nm
Method: as §2

[5] = tested on: Escherichia coli BL21; conditions: inactive strain
Method: (§3) Two control stains are used: one having a cellulase activity (Bacillus subtilis NCIM 2724) the other one not having any activity (Escherichia coli BL21). Both strains are cultivated in an LB medium at 30° C. with stirring (240 rpm) for 18 h. For each strain, the culture is centrifuged (2 500 g, 5 min) and the pellet of cells is washed twice in 5 mL of an LB medium (centrifugation at 2 500 g, 5 min). This pellet is used for inoculation at OD=0.005 a culture in an inducing medium (Dubos medium with 2.5 g/L of carboxymethyl-cellulose) containing the fluorogenic substrate 8 and 2.5 μM (B. subtilis NCIM 2724) or 10 μM (E. coli BL21) of sulforhodamine. Both of these cell suspensions are used with perfluorinated oil in order to produce an emulsion consisting of two populations of droplets each containing one of the described suspensions. The blue and red fluorescences of the droplets are measured individually, on a sample of the emulsion, during production (t=0 h) and reinjection after having incubated the emulsion for 24 h at 30° C.
(§4) The graphs a and b, shown in FIG. 5, are two dimensional histograms of the red (in abscissas, RFU) and blue (in ordinates, RFU) fluorescence intensities measured on the emulsion during its production (a) and its reinjection after incubation fro 24 h at 30° C. (b). The population density is illustrated by a color code varying from pink (1 droplet) to red (>1,000 droplets) according to a logarithmic scale.

[6] = tested on: Bacillus subtilis NCIM 2724
Method: as §3, §4

[7] = tested on: xylanase; conditions: extracts diluted 100 times; substrate 0.25 mM; phosphate buffer pH 7.5; 30° C; 120 minutes; excitation/emission 339/452 nm
Method: as §1

O=c1cc(CS(=O)(=O)[O-])c2cc(F)c(O[C@@H]3OC[C@@H](O)[C@H](O)[C@H]3O)c(F)c2o1.[Na+] [substrate 12, sodium β-D-xyloside 6,8-difluoro-7-hydroxycoumarin-4-methanesulfonate]
detection of enzymatic activity of type β-xylosidase by fluorescence [1]: allow detection of the enzymatic activities

O=c1cc(CS(=O)(=O)[O-])c2cc(F)c(O[C@@H]3O[C@H](CO)[C@@H](O)[C@H](O)[C@H]3O)c(F)c2o1.[Na+] [substrate 10, sodium β-D-glucoside 6,8-difluoro-7-hydroxycoumarin-4-methanesulfonate]
detection of enzymatic activity of the β-glucosidase type on cultures of microorganisms [2]: allow detection of the enzymatic activities | detection of enzymatic activity of type β-glucosidase by fluorescence ([3]; extracts diluted 100 times, excitation/emission 339/452 nm): allow detection of the enzymatic activities

O=c1cc(CS(=O)(=O)[O-])c2cc(F)c(O[C@@H]3O[C@H](CO)[C@@H](O[C@@H]4O[C@H](CO)[C@@H](O)[C@H](O)[C@H]4O)[C@H](O)[C@H]3O)c(F)c2o1.[Na+] [substrate 8, sodium β-D-cellobioside 6,8-difluoro-7-hydroxycoumarin-4-methanesulfonate]
detection of enzymatic activity of the cellulase type on cultures of microorganisms [4]: allow detection of the enzymatic activities | change of blue fluorescence of the droplets ([5]; after 24 h of incubation at 30° C): do not have any increase of their blue fluorescence | % of positive droplets ([5]; reinjection (t = 24 h) after incubation at 30° C, 10 μM sulforhodamine, threshold 37.56 RFU blue fluorescence): 0.26% | change of blue fluorescence of the droplets ([6]; after 24 h of incubation at 30° C, active strain): blue fluorescence significantly increased | detection of an activity of the cellulase type on microorganisms within an emulsion ([6]; emulsion generated by a microfluidic system, 24 h at 30° C): allows detection of an activity of the cellulase type | % of positive droplets ([6]; reinjection (t = 24 h) after incubation at 30° C, active strain, 2.5 μM sulforhodamine, threshold 37.56 RFU blue fluorescence): 27% and 27.61%

O=c1cc(CS(=O)(=O)[O-])c2cc(F)c(O[C@@H]3OC[C@@H](O[C@@H]4OC[C@@H](O)[C@H](O)[C@H]4O)[C@H](O)[C@H]3O)c(F)c2o1.[Na+] [substrate 14, sodium β-D-xylobioside 6,8-difluoro-7-hydroxycoumarin-4-methanesulfonate]
detection of enzymatic activity of xylanase type by fluorescence [7]: allow detection of the enzymatic activities

O=c1cc(CS(=O)(=O)[O-])c2c(cc(O[C@@H]3O[C@H](CO)[C@@H](O)[C@H](O)[C@H]3O)c3ccccc32)o1.[Na+] [substrate 18, sodium β-D-glucoside 5,6-benzo-7-hydroxycoumarin-4-methanesulfonate]
detection of enzymatic activity of type β-glucosidase by fluorescence ([3]; extracts diluted 10 times, excitation/emission 375/510 nm): allow detection of the enzymatic activities
